Values of other authors as cited in patent US9446139B2, “Polymer-based compositions and conjugates of HIV entry inhibitors” (Nektar Therapeutics, priority 2004, dated 2016).

Key:
[1] = 90-mg single subcutaneous dose (N=12)

Q: For enfuvirtide, which “mean duration of each ISR” value (human, in vivo) is on record?
A: around 7 days

Q: And the “patients reporting at least one instance of painful or troublesome local injection site reactions (ISR)” value (subcutaneous injection two times a day)?
A: 98%

Q: And the “mean elimination half life” value [1]?
A: 3.8 ± 0.6 h

Q: What about the “mean±SD apparent clearance” value [1] of the same substance?
A: 0.413 ± 0.0683 mL/min/kg
